# Experimental data as given in patent US20240269139A1, “COMPOUNDS FOR TARGETED PROTEIN DEGRADATION OF KINASES” (DANA-FARBER CANCER INSTITUTE, INC., priority 2020, published 2024).
# Read-outs that look alike come from different tables or passages of the source.
# Tested on: protein kinases (human kinome)
# Type: cell-based
# Conditions: for logFC ABL1: ABL1 (P00519-2); for logFC of SRC: Accession P12931-2; for logFC CDK12: Accession Q9NYV4-2; for logFC of FER: FER P16591-3; for logFC LCK: accession P06239-3; for logFC RPS6KA1: RPS6KA1 (Q15418-2)
# [1] = AURKB Q96GD4-5, experiment wp103
# [2] = AURKB Q96GD4-5, experiment wp105
# [3] = AURKB Q96GD4-5, experiment wp107
# [4] = AURKB Q96GD4-5, experiment wp133, 1 hr
# [5] = AURKB Q96GD4-5, experiment wp133, 2 hr
# [6] = AURKB Q96GD4-5, experiment wp133, 4 hr
# [7] = Experiment wp107, direction down
# [8] = experiment wp016, 1 uM, direction of change down
# [9] = experiment wp016, direction of change down
structure (smiles),measurement,setting,value
CC(C)S(=O)(=O)c1ccccc1Nc1nc(Nc2ccc(N3CCN(CCOCCNC(=O)CNc4cccc5c4C(=O)N(C4CCC(=O)NC4=O)C5=O)CC3)cc2)ncc1Cl (stereo not drawn) [SK.3.91],logFC ABL1,"experiment wp016, 1 uM",−0.3875
same,logFC ABL1,experiment wp105,−0.333
same,logFC ABL1,experiment wp107,−0.4711
same,logFC ABL1,"experiment wp133, 4 hr",−0.3801
same,logFC,[1],−0.3966
same,logFC AURKB,[1],−0.3966
same,logFC,[2],−0.7004
same,logFC AURKB,[2],−0.7004
same,logFC,[3],−0.443
same,logFC AURKB,[3],−0.443
same,logFC,[4],−0.4923
same,logFC AURKB,[4],−0.4923
same,logFC,[5],−0.5333
same,logFC AURKB,[5],−0.5333
same,logFC,[6],−0.8007
same,logFC AURKB,[6],−0.8007
same,logFC BUB1B,"Accession O60566-3, experiment wp016, 1 uM, direction down",−0.4685
same,logFC BUB1B,"Accession O60566-3, experiment wp103, direction down",−0.3983
same,logFC BUB1B,"Accession O60566-3, experiment wp107, direction down",−0.5037
same,logFC BUB1B,"Accession O60566-3, experiment wp133, 1 hr, direction down",−0.4083
same,logFC BUB1B,"Accession O60566-3, experiment wp133, 2 hr, direction down",−0.4195
same,logFC BUB1B,"Accession O60566-3, experiment wp133, 4 hr, direction down",−0.5871
same,logFC of SRC,experiment wp016,−0.3847
same,logFC of SRC,"experiment wp016, 1 uM",−0.8428
same,logFC of SRC,experiment wp103,−0.5004
same,logFC of SRC,experiment wp105,−0.3464
same,logFC of SRC,experiment wp107,−0.7782
same,logFC of SRC,"experiment wp133, 4 hr",−0.6408
same,logFC CSNK1D,"Accession P48730-2, experiment wp114, direction down",−0.3991
same,logFC CSNK1D,"Accession P48730-2, experiment wp160, 4 hr, direction down",−0.3373
same,logFC CDK12,experiment wp107,−1.042
same,logFC CDK12,"experiment wp160, 2 hr",−0.4558
same,logFC CDK12,"experiment wp160, 4 hr",−0.8448
same,logFC BUB1B,"BUB1B (O60566-3), experiment wp016, 1 uM",−0.4685
same,logFC BUB1B,"BUB1B (O60566-3), experiment wp103",−0.3983
same,logFC BUB1B,"BUB1B (O60566-3), experiment wp107",−0.5037
same,logFC BUB1B,"BUB1B (O60566-3), experiment wp133, 1 hr",−0.4083
same,logFC BUB1B,"BUB1B (O60566-3), experiment wp133, 2 hr",−0.4195
same,logFC BUB1B,"BUB1B (O60566-3), experiment wp133, 4 hr",−0.5871
same,logFC,"CDK9 (P50750-2) protein abundance, degrader vs DMSO, 1 uM, down",−1.356
same,logFC,"CDK9 (P50750-2) protein abundance, degrader vs DMSO, 2 hr, down",−0.3971
same,logFC,"CDK9 (P50750-2) protein abundance, degrader vs DMSO, 4 hr, down",−1.037
same,logFC,"CDK18 (Q07002-3), experiment wp105",−1.233
same,logFC,"CDK18 (Q07002-3), experiment wp114",−0.8295
same,logFC CSNK1D,"CSNK1D P48730-2, experiment wp114",−0.3991
same,logFC CSNK1D,"CSNK1D P48730-2, experiment wp160, 4 hr",−0.3373
same,logFC PRKAA1 (Q13131-2),"Experiment wp016, 1 uM, direction down",−0.7977
same,logFC PRKAA1 (Q13131-2),"Experiment wp016, direction down",−0.4914
same,logFC CDK9 (P50750-2),Experiment wp103,−0.7857
same,logFC PRKAA1 (Q13131-2),"Experiment wp103, direction down",−0.5012
same,logFC PRKAA1 (Q13131-2),"Experiment wp105, direction down",−0.4413
same,logFC MAP3K12 (Q12852-2),"Experiment wp105, direction of change down",−0.6931
same,logFC CDK9 (P50750-2),Experiment wp107,−1.2
same,logFC of CDK12 (Q9NYV4-2),Experiment wp107,−1.042
same,logFC PRKAA1 (Q13131-2),[7],−0.6352
same,logFC TNK2 (Q07912-3),[7],−1.18
same,logFC of CDK18 (Q07002-3),Experiment wp114,−0.8295
same,logFC TNK1 (Q13470-2),"Experiment wp114, direction of change down",−0.7394
same,logFC PRKAA1 (Q13131-2),"Experiment wp133, 2 hr, direction down",−0.3804
same,logFC PRKAA1 (Q13131-2),"Experiment wp133, 4 hr, direction down",−0.6752
same,logFC of CDK12 (Q9NYV4-2),"Experiment wp160, 2 hr",−0.4558
same,logFC ABL2 (P42684-5),Experiment wp172,−0.7139
same,logFC of ABL2 (P42684-5),Experiment wp172,−0.7139
same,logFC,"FER (P16591-3), experiment wp114, direction down",−2.308
same,logFC,"FER (P16591-3), experiment wp172, direction down",−2.816
same,logFC of FER,experiment wp114,−2.308
same,logFC of FER,experiment wp172,−2.816
same,logFC LCK,[8],−1.579
same,logFC LCK,[9],−0.9189
same,logFC LCK,"experiment wp103, direction of change down",−1.148
same,logFC LCK,"experiment wp107, direction of change down",−1.575
same,logFC LCK,"experiment wp133, 2 hr, direction of change down",−0.5352
same,logFC LCK,"experiment wp133, 4 hr, direction of change down",−1.277
same,logFC,"LIMK2 (P53671-3), experiment wp105, direction down",−0.8401
same,logFC of LIMK2,"LIMK2 P53671-3, experiment wp105",−0.8401
same,logFC,"MARK2 Q7KZI7-14, experiment wp105",−0.4159
same,logFC,"MARK2 Q7KZI7-14, experiment wp133, 4 hr",−0.4086
same,logFC,"PIP5K1A (Q99755-3), experiment wp107",−0.45
same,logFC,"PIP5K1A (Q99755-3), experiment wp133, 4 hr",−0.3712
same,logFC,"PTK2B (Q14289-2), experiment wp107, direction down",−3.126
same,logFC PTK2B,"PTK2B, accession Q14289-2, experiment wp107, direction of change down",−3.126
same,logFC RPS6KA1,"experiment wp016, 1 uM",−0.4146
same,logFC RPS6KA1,"experiment wp133, 4 hr",−0.3598
same,logFC,"SRC (P12931-2) protein abundance, degrader vs DMSO, 1 uM, down",−0.8428
same,logFC,"SRC (P12931-2) protein abundance, degrader vs DMSO, 4 hr, down",−0.6408
same,logFC,"STK40 (Q8N2I9-4), experiment wp105, direction down",−0.606
same,logFC,"STK40 Q8N2I9-4, experiment wp105",−0.606
same,logFC,"TNK2 (Q07912-3), experiment wp107, direction down",−1.18
same,logFC CDK9 (P50750-2),experiment wp016,−0.6515
same,logFC PRKAA1 (Q13131-2),experiment wp016,−0.4914
same,logFC ABL1 (P00519-2),"experiment wp016, 1 uM",−0.3875
same,logFC CDK9 (P50750-2),"experiment wp016, 1 uM",−1.356
same,logFC PRKAA1 (Q13131-2),"experiment wp016, 1 uM",−0.7977
same,logFC RPS6KA1 (Q15418-2),"experiment wp016, 1 uM",−0.4146
same,logFC LCK (P06239-3),[8],−1.579
same,logFC LCK (P06239-3),[9],−0.9189
